Measurements taken from ChEMBL document CHEMBL2424591 (Bioorg Med Chem, 2013).

Each compound was assayed against T1, Ribosyldihydronicotinamide dehydrogenase [quinone] (Homo sapiens, UniProt P16083) (assay: Inhibition of human quinone reductase 2 expressed in Escherichia coli BL21(DE3) using N-methyldihydronicotinamide as co-substrate).
T1 sequence (P16083 whole entry): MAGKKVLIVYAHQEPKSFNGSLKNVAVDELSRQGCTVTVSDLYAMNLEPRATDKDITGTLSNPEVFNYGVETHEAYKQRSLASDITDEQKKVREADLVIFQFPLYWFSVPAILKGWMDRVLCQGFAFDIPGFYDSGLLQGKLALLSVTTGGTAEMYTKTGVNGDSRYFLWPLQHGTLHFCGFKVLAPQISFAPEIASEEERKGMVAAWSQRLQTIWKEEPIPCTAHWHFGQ

SMILES	IC50
COc1cc(/C=C/c2ccc(F)cc2)cc(OC)c1	4.6 µM
COc1ccc(/C=C/c2ccc(O)c(O)c2)cc1	9.3 µM
COc1ccc(/C=C/c2ccc3ccccc3c2)cc1OC	5.5 µM
COc1ccc(/C(C)=C/c2ccc(OC)c(OC)c2)cc1	6.7 µM
COc1cc(/C=C(\C)c2ccc(OC)c(OC)c2)cc(OC)c1	9.9 µM
N#C/C(=C\c1cc(O)cc(O)c1)c1ccc(O)cc1	5.9 µM
OC/C(=C\c1cc(O)cc(O)c1)c1ccc(O)cc1	5.1 µM
COc1ccc(/C(C=O)=C/c2cc(OC)cc(OC)c2)cc1	24.2 µM
NC(=O)/C(=C\c1cc(O)cc(O)c1)c1ccc(O)cc1	9.3 µM
O=C/C(=C/c1cc(O)cc(O)c1)c1ccc(O)cc1	25.5 µM
COc1ccc(/C(=C\c2cc(OC)cc(OC)c2)CO)cc1	27.5 µM
O=C(Nc1ccc(O)cc1)c1cc(O)cc(O)c1	27.6 µM
O=C(Nc1cc(O)cc(O)c1)c1ccc(O)cc1	16.8 µM
Oc1ccc(/C=C/c2ccc(O)c(O)c2)cc1	6 µM
Oc1ccc(/C=C/c2cccc(F)c2)cc1O	20.8 µM
CC/C(=C\c1ccc(N(C)C)cc1)c1cc(O)cc(O)c1	10.9 µM
CC/C(=C\c1cc(OC)cc(OC)c1)c1ccc(OC)c(OC)c1	16.3 µM

SMILES	IC50
COc1cc(/C=C/c2ccc3ccccc3c2)cc(OC)c1	0.73 µM
COc1cccc(/C=C/c2ccc(OC)c(OC)c2)c1	6.8 µM
COc1ccc(/C=C/c2ccc(N(C)C)cc2)cc1OC	13 µM
C/C(=C\c1cc(O)cc(O)c1)c1ccc(O)cc1	39 µM
Oc1ccc(/C=C/c2ccc(C(F)(F)F)cc2)cc1O	< 14.2 µM
COc1ccc(/C=C(/c2cc(OC)cc(OC)c2)C(F)(F)F)cc1	13 µM
COc1ccc(/C(C)=C/c2cc(O)cc(O)c2)cc1	12 µM
COc1ccc(/C(C)=C/c2cc(OC)cc(OC)c2)cc1	20.1 µM
COc1ccc(/C(C)=C/c2cc(O)cc(O)c2)cc1OC	33.7 µM
COc1ccc(/C=C(/c2cccc(C(F)(F)F)c2)C(F)(F)F)cc1OC	0.18 µM
C/C(=C\c1ccc(C(F)(F)F)cc1)c1ccc(O)cc1	2.8 µM
C/C(=C\c1ccc(O)cc1)c1cc(O)cc(O)c1	4.8 µM
COc1ccc(/C(C#N)=C/c2cc(OC)cc(OC)c2)cc1	31.6 µM
COc1cc(/C=C/c2ccc(OC)c(OC)c2)cc(OC)c1 [(E)-3,4,3',5'-TETRAMETHOXYSTILBENE]	37.1 µM
COc1cc(/C=C/c2ccc(O)cc2)cc(OC)c1 [PTEROSTILBENE]	5.1 µM
COc1ccc(/C=C/c2cc(OC)cc(OC)c2)cc1 [TRISMETHOXYRESVERATROL]	14.6 µM
